Starred links: 1 amine or outer side, 2 acyl side, 3 side chain; linkers in the order of their positions; H or OH if unused. Positions of bridges follow the written chain, without caps; N, C: chain ends. Residues, ends and D or L forms follow the SMILES beside them. *: point of attachment. C18 diacid = O=C(O)CCCCCCCCCCCCCCCCC(=O)*; γGlu = O=C(O)[C@H](CCC(=O)[*:2])N[*:1]; AEEA = NCCOCCOCC(=O)O
Molecular target: T1, human natriuretic peptide receptor 2 (hNPR2) (Homo sapiens, UniProt P20594)
T1 construct: expressed in transfected cells; host or cells: HEK293 (ATCC CRL-1573), clone 35, co-transfected with pGloSensor-42F
T1 sequence (P20594 23-1047): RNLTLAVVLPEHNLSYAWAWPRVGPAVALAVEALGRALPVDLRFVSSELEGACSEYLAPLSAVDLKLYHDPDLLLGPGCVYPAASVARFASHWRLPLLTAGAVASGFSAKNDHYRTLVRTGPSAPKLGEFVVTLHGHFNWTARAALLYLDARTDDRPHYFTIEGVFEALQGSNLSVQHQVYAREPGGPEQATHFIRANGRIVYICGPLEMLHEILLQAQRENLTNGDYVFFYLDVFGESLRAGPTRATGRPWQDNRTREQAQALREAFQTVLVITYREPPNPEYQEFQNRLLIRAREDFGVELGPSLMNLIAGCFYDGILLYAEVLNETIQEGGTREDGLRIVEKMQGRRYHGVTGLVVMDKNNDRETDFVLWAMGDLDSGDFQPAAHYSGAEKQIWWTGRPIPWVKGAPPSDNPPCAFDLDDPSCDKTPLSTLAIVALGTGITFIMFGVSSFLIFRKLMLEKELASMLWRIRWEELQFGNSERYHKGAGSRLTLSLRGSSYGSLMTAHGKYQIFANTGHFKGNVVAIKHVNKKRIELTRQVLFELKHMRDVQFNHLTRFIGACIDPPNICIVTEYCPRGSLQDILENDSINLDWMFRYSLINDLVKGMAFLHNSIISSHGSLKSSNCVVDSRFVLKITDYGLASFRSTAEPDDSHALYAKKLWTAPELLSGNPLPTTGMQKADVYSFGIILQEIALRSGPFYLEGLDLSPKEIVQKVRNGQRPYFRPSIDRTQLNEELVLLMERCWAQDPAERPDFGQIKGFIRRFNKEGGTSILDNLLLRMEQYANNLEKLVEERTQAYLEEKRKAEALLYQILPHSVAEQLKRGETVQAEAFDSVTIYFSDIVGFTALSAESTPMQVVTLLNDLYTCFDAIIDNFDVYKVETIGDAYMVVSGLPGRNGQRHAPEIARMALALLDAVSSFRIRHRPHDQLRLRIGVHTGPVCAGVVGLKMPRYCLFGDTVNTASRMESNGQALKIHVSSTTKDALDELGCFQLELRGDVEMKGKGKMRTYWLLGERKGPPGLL
Test: In vitro hNPR2 activity assay (cGMP GloSensor reporter, HEK293)
Format: cell-based
Details: for EC50: 0% HSA, HEK293-hNPR2/GloSensor cells; for hNPR2 0% HSA. [EC50% rel CNP]: potency relative to CNP22 (0065)
Outline: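 Potency is the EC50 from a four-parameter logistic fit, also expressed relative to the in-plate CNP22 control (×100), with at least two replicates. Compounds (ten concentrations, […], HSA-free diluent with 1% OVA, 0.01% Tween20) were incubated 30 min at 37 °C on HEK293 cells co-expressing hNPR2 and a GloSensor cGMP luciferase. Luminescence detected with Bright-Glo.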

SMILES | EC50 [nM] | hNPR2 0% HSA. [EC50% rel CNP] [%]
CC[C@H](C)[C@@H]1NC(=O)[C@H](CCCNC(=N)N)NC(=O)[C@H](CCC(=O)O)NC(=O)[C@H](CC(C)C)NC(=O)[C@H](CCCCN)NC(=O)[C@H](CC(C)C)NC(=O)CNC(=O)[C@H](Cc2ccccc2)NC(=O)[C@@H](NC(=O)CNC(=O)[C@H](CCCCN)NC(=O)[C@H](CO)NC(=O)[C@H](CC(C)C)NC(=O)CNC(=O)[C@H](Cc2c[nH]cn2)NC(=O)[C@H](Cc2c[nH]cn2)NC(=O)[C@H](CCC(N)=O)NC(=O)[C@H](C)NC(=O)CNC(=O)[C@H](Cc2c[nH]cn2)NC(=O)[C@H](Cc2ccc(O)cc2)NC(=O)COCCOCCNC(=O)COCCOCCNC(=O)CC[C@H](NC(=O)CCCCCCCCCCCCCCCCC(=O)O)C(=O)O)CSSC[C@@H](C(=O)O)NC(=O)CNC(=O)[C@H](CC(C)C)NC(=O)CNC(=O)[C@H](CO)NC(=O)[C@H](CC(C)C)NC(=O)[C@H](CO)NC(=O)CNC1=O [compound 1322] ({C18 diacid-γGlu-AEEA-AEEA}-YHGAQHHGLSKGCFGLKLERIGSLSGLGC-OH; disulfide 13-29; C-terminus assumed) | 4.73 | 1.9
CC[C@H](C)[C@@H]1NC(=O)[C@H](CCCNC(=N)N)NC(=O)[C@H](CCC(=O)O)NC(=O)[C@H](CC(C)C)NC(=O)[C@H](CCCCN)NC(=O)[C@H](CC(C)C)NC(=O)CNC(=O)[C@H](Cc2ccccc2)NC(=O)[C@@H](NC(=O)CNC(=O)[C@H](CCCCN)NC(=O)[C@H](CO)NC(=O)[C@H](CC(C)C)NC(=O)CNC(=O)[C@H](Cc2c[nH]cn2)NC(=O)[C@H](Cc2c[nH]cn2)NC(=O)[C@H](CCC(N)=O)NC(=O)[C@H](C)NC(=O)CNC(=O)[C@H](Cc2c[nH]cn2)NC(=O)[C@H](Cc2ccc(O)cc2)NC(=O)COCCOCCNC(=O)COCCOCCNC(=O)CC[C@H](NC(=O)CC[C@H](NC(=O)CCCCCCCCCCCCCCCCC(=O)O)C(=O)O)C(=O)O)CSSC[C@@H](C(=O)O)NC(=O)CNC(=O)[C@H](CC(C)C)NC(=O)CNC(=O)[C@H](CO)NC(=O)[C@H](CC(C)C)NC(=O)[C@H](CO)NC(=O)CNC1=O [compound 1323] ({C18 diacid-γGlu-γGlu-AEEA-AEEA}-YHGAQHHGLSKGCFGLKLERIGSLSGLGC-OH; disulfide 13-29; C-terminus assumed) | 11.2 | 0.8
CC[C@H](C)[C@@H]1NC(=O)[C@H](CCCNC(=N)N)NC(=O)[C@H](CCC(=O)O)NC(=O)[C@H](CC(C)C)NC(=O)[C@H](CCCCN)NC(=O)[C@H](CC(C)C)NC(=O)CNC(=O)[C@H](Cc2ccccc2)NC(=O)[C@@H](NC(=O)CNC(=O)[C@H](CCC(N)=O)NC(=O)[C@H](CO)NC(=O)[C@H](CC(C)C)NC(=O)CNC(=O)[C@H](Cc2c[nH]cn2)NC(=O)[C@H](Cc2c[nH]cn2)NC(=O)[C@H](CCC(N)=O)NC(=O)[C@H](C)NC(=O)CNC(=O)[C@H](CCCCN)NC(=O)[C@H](Cc2ccc(O)cc2)NC(=O)COCCOCCNC(=O)COCCOCCNC(=O)CC[C@H](NC(=O)CC[C@H](NC(=O)CCCCCCCCCCCCCCCCC(=O)O)C(=O)O)C(=O)O)CSSC[C@@H](C(=O)O)NC(=O)CNC(=O)[C@H](CC(C)C)NC(=O)CNC(=O)[C@H](CO)NC(=O)[C@H](CC(C)C)NC(=O)[C@H](CO)NC(=O)CNC1=O [compound 1324] ({C18 diacid-γGlu-γGlu-AEEA-AEEA}-YKGAQHHGLSQGCFGLKLERIGSLSGLGC-OH; disulfide 13-29) | 5.51 | 1.6
CC[C@H](C)[C@@H]1NC(=O)[C@H](CCCNC(=N)N)NC(=O)[C@H](CCC(=O)O)NC(=O)[C@H](CC(C)C)NC(=O)[C@@H]2CCCN2C(=O)[C@H](CC(C)C)NC(=O)CNC(=O)[C@H](Cc2ccccc2)NC(=O)[C@@H](NC(=O)CNC(=O)[C@H](CO)NC(=O)[C@H](CO)NC(=O)[C@H](CC(C)C)NC(=O)CNC(=O)[C@H](CCCCN)NC(=O)[C@H](CCCCN)NC(=O)[C@H](CCC(N)=O)NC(=O)[C@H](C)NC(=O)CNC(=O)[C@H](CCC(=O)O)NC(=O)[C@H](Cc2ccc(O)cc2)NC(=O)COCCOCCNC(=O)COCCOCCNC(=O)CC[C@H](NC(=O)CCCCCCCCCCCCCCCCC(=O)O)C(=O)O)CSSC[C@@H](C(=O)O)NC(=O)CNC(=O)[C@H](CC(C)C)NC(=O)CNC(=O)[C@H](CO)NC(=O)[C@H](CC(C)C)NC(=O)[C@H](CO)NC(=O)CNC1=O [compound 1338] ({C18 diacid-γGlu-AEEA-AEEA}-YEGAQKKGLSSGCFGLPLERIGSLSGLGC-OH; disulfide 13-29) | 6.77 | 1.3
CC[C@H](C)[C@@H]1NC(=O)[C@H](CCCNC(=N)N)NC(=O)[C@H](CC(=O)O)NC(=O)[C@H](CC(C)C)NC(=O)[C@@H]2CCCN2C(=O)[C@H](CC(C)C)NC(=O)CNC(=O)[C@H](Cc2ccccc2)NC(=O)[C@@H](NC(=O)CNC(=O)[C@H](CO)NC(=O)[C@H](CO)NC(=O)[C@H](CC(C)C)NC(=O)CNC(=O)[C@H](CCCCN)NC(=O)[C@H](CCCCN)NC(=O)[C@H](CCC(N)=O)NC(=O)[C@H](C)NC(=O)CNC(=O)[C@H](CCC(=O)O)NC(=O)COCCOCCNC(=O)COCCOCCNC(=O)CC[C@H](NC(=O)CCCCCCCCCCCCCCCCC(=O)O)C(=O)O)CSSC[C@@H](C(=O)O)NC(=O)CNC(=O)[C@H](CC(C)C)NC(=O)CNC(=O)[C@H](CO)NC(=O)[C@H](CC(C)C)NC(=O)[C@H](CO)NC(=O)CNC1=O [compound 1339] ({C18 diacid-γGlu-AEEA-AEEA}-EGAQKKGLSSGCFGLPLDRIGSLSGLGC-OH; disulfide 12-28) | – | 15.5
CC[C@H](C)[C@@H]1NC(=O)[C@H](CCCNC(=N)N)NC(=O)[C@H](CC(=O)O)NC(=O)[C@H](CC(C)C)NC(=O)[C@H](CCCCN)NC(=O)[C@H](CC(C)C)NC(=O)CNC(=O)[C@H](Cc2ccccc2)NC(=O)[C@@H](NC(=O)CNC(=O)[C@H](CCC(N)=O)NC(=O)[C@H](CO)NC(=O)[C@H](CC(C)C)NC(=O)CNC(=O)[C@H](Cc2c[nH]cn2)NC(=O)[C@H](Cc2c[nH]cn2)NC(=O)[C@H](CCC(N)=O)NC(=O)[C@H](C)NC(=O)CNC(=O)[C@H](CCCCN)NC(=O)[C@H](Cc2ccc(O)cc2)NC(=O)COCCOCCNC(=O)COCCOCCNC(=O)CC[C@H](NC(=O)CCCCCCCCCCCCCCCCC(=O)O)C(=O)O)CSSC[C@@H](C(=O)O)NC(=O)CNC(=O)[C@H](CC(C)C)NC(=O)CNC(=O)[C@H](CO)NC(=O)[C@H](CC(C)C)NC(=O)[C@H](CO)NC(=O)CNC1=O [compound 1340] ({C18 diacid-γGlu-AEEA-AEEA}-YKGAQHHGLSQGCFGLKLDRIGSLSGLGC-OH; disulfide 13-29) | 0.18 | 44.4
CC[C@H](C)[C@@H]1NC(=O)[C@H](CCCNC(=N)N)NC(=O)[C@H](CC(=O)O)NC(=O)[C@H](CC(C)C)NC(=O)[C@@H]2CCCN2C(=O)[C@H](CC(C)C)NC(=O)CNC(=O)[C@H](Cc2ccccc2)NC(=O)[C@@H](NC(=O)CNC(=O)[C@H](CCC(N)=O)NC(=O)[C@H](CO)NC(=O)[C@H](CC(C)C)NC(=O)CNC(=O)[C@H](Cc2c[nH]cn2)NC(=O)[C@H](Cc2c[nH]cn2)NC(=O)[C@H](CCC(N)=O)NC(=O)[C@H](C)NC(=O)CNC(=O)[C@H](CCCCN)NC(=O)[C@H](Cc2ccc(O)cc2)NC(=O)COCCOCCNC(=O)COCCOCCNC(=O)CC[C@H](NC(=O)CCCCCCCCCCCCCCCCC(=O)O)C(=O)O)CSSC[C@@H](C(=O)O)NC(=O)CNC(=O)[C@H](CC(C)C)NC(=O)CNC(=O)[C@H](CO)NC(=O)[C@H](CC(C)C)NC(=O)[C@H](CO)NC(=O)CNC1=O [compound 1341] ({C18 diacid-γGlu-AEEA-AEEA}-YKGAQHHGLSQGCFGLPLDRIGSLSGLGC-OH; disulfide 13-29; C-terminus assumed) | – | 16.7
